Results as given in PMC10295947 (Biomolecules, 2023).
Where a name gives a salt, the structure may show the parent alone.

Molecular target: MOR (Mus musculus, UniProt P42866)
Format: biochemical

Sequence of MOR (P42866 whole entry): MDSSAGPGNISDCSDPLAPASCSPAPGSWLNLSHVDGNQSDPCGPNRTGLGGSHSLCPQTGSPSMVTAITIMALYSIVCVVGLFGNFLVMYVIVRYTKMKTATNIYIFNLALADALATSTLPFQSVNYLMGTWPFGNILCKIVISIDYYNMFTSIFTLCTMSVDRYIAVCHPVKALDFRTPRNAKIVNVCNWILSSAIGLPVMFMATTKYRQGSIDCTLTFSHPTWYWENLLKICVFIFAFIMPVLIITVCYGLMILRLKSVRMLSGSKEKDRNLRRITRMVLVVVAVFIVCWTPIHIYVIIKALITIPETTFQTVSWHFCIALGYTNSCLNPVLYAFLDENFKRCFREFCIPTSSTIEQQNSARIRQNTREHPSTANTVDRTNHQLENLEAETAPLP

Q: For `COc1ccsc1CNCC[C@@]1(c2ccccn2)CCOC2(CCCC2)C1` [oliceridine, Oliceridine hydrochloride], which “Stimulation of 35S-GTPγS binding (in words)” value is on record?
A: The value was “no measurable stimulation”.
